These results are taken from ChEMBL document CHEMBL6153042, “Glycoconjugates of adefovir and tenofovir as asialoglycoprotein-mediated Anti-HBV prodrugs with enhanced liver targeting” (Eur J Med Chem, 2025).

Data set [1] can be described thus: Toxicity in Kunming mouse assessed as effect on body weight at 100 to 200 mg/kg, iv administered once daily for 5 days. Format: organism-based. To be noted: in vivo, 120 h, dose 100-200 mg/kg, time 5 day.
A short description of data set [2]: Toxicity in Kunming mouse assessed as effect on liver size at 100 to 200 mg/kg, iv once daily for 5 days. Format: organism-based. Particulars: in vivo, 120 h, dose 100-200 mg/kg, time 5 day; call rule not given here.
Data set [3] has as its system LX-2. Briefly: Cytotoxicity against human LX2 cells at 5 uM incubated for 48 hrs by CCK8 assay. To be noted: lx-2, 48 h. Format: toxicity, cell-based. Background: Formazan colour is commonly taken as a measure of viable cells.
Data set [4] can be described thus: Toxicity in Kunming mouse assessed as histopathological changes in liver at 200 mg/kg, iv once daily for 5 days by H and E staining based analysis. It counts as organism-based. Particulars: in vivo, 120 h, time 5 day.
Data set [5] in a line: Toxicity in Kunming mouse assessed as effect on heart size at 100 to 200 mg/kg, iv once daily for 5 days. It counts as organism-based. To be noted: in vivo, 120 h, dose 100-200 mg/kg, time 5 day.
The nature of data set [6]: Drug uptake in Sprague-Dawley rat liver at 10 mg/kg, iv measured after 1 to 6 hrs by LC-MS/MS analysis. Format: ADME, organism-based. Particulars: in vivo, time 1-6 hrs.
The nature of data set [7]: Stability of compound in PBS buffer assessed as half-life by high-performance liquid chromatography. Format: physicochemical.
The nature of data set [8]: Toxicity in Kunming mouse assessed as histopathological changes in kidney at 200 mg/kg, iv once daily for 5 days by H and E staining based analysis. To be noted: in vivo, 120 h, time 5 day. Format: organism-based.
Data set [9] is described as follows: Toxicity in Kunming mouse assessed as effect on liver colour at 100 to 200 mg/kg, iv once daily for 5 days. Format: organism-based. To be noted: in vivo, 120 h, dose 100-200 mg/kg, time 5 day.
Data set [10] in a line: Toxicity in Kunming mouse assessed as effect on liver weight at 100 to 200 mg/kg, iv once daily for 5 days. Format: organism-based. To be noted: in vivo, 120 h, dose 100-200 mg/kg, time 5 day.
A short description of data set [11]: Toxicity in Kunming mouse assessed as effect on heart colour at 100 to 200 mg/kg, iv once daily for 5 days. It counts as organism-based. Particulars: in vivo, 120 h, dose 100-200 mg/kg, time 5 day.
Data set [12] can be described thus: Toxicity in Kunming mouse assessed as effect on kidney weight at 100 to 200 mg/kg, iv once daily for 5 days. Format: organism-based. To be noted: in vivo, 120 h, dose 100-200 mg/kg, time 5 day.
For data set [13], the system named is Hepatitis B virus. Nature of the data set: Antiviral activity against Hepatitis B virus infected in human HepG2.2.15 cells assessed as inhibition of HBV DNA replication incubated for 10 day by qPCR analysis. Format: functional, organism-based. Particulars: HepG2.2.15, 240 h.
Data set [14] is described as follows: Drug metabolism in plasma of Sprague-Dawley rat assessed as (1-(36-(((2R,3R,4S,5R,6R)-3-acetamido-4,5-dihydroxy-6-(hydroxymethyl)tetrahydro-2H-pyran-2-yl)oxy)-21,21-bis((3-((3-(5-(((2R,3R,4S,5R,6R)-3-acetamido-4,5-dihydroxy-6-(hydroxymethyl)tetrahydro-2H-pyran-2-yl)oxy)pentanamido)propyl)amino)-3-oxopropoxy)methyl)-16,19,26,32-tetraoxo-3,6,9,12,23-pentaoxa-15,20,27,31-tetraazahexatriacontyl)-1H-1,2,3-triazol-4-yl)methyl hydrogen ((((R)-1-(6-amino-9H-purin-9-yl)propan-2-yl)oxy)methyl)phosphonate formation measured at 2.1 mins by HPLC analysis. Format: ADME, cell-free. To be noted: 0.035 h.

Data set [15] can be described thus: Cytotoxicity against human HepG2.2.15 cells assessed as inhibition of cell proliferation by CCK8 assay. Format: toxicity, cell-based, HepG2 2.2.15.
Data set [16] can be described thus: Toxicity in Kunming mouse assessed as effect on kidney colour at 100 to 200 mg/kg, iv once daily for 5 days. It counts as organism-based. Particulars: in vivo, 120 h, dose 100-200 mg/kg, time 5 day.
In data set [17] the test system is LX-2. Nature of the data set: Cytotoxicity against human LX2 cells assessed as cell growth inhibition at 10 uM incubated for 48 hrs by CCK8 assay relative to control. Format: toxicity, cell-based. Particulars: lx-2, 48 h, 10 µM.
The nature of data set [18]: Selectivity index, the ratio of CC50 for human HepG2.2.15 cells to EC50 for antiviral activity against HBV in human HepG2.2.15 cells assessed as inhibition of HBV DNA replication. Format: toxicity, cell-based. To be noted: read-out: Ratio CC50/EC50.
Data set [19] is described as follows: Toxicity in Kunming mouse assessed as maximum tolerated dose administered intravenously as once daily dose for 5 days. Particulars: in vivo, route iv, time 5 day.
Data set [20] is described as follows: Toxicity in Kunming mouse assessed as histopathological changes in heart at 200 mg/kg, iv once daily for 5 days by H and E staining based analysis. It counts as organism-based. To be noted: in vivo, 120 h, time 5 day.
Data set [21] in a line: Toxicity in Kunming mouse assessed as effect on kidney size at 100 to 200 mg/kg, iv once daily for 5 days. To be noted: in vivo, 120 h, dose 100-200 mg/kg, time 5 day. Format: organism-based.
Data set [22] is described as follows: Toxicity in Kunming mouse assessed as effect on heart weight at 100 to 200 mg/kg, iv once daily for 5 days. Particulars: in vivo, 120 h, dose 100-200 mg/kg, time 5 day. It counts as organism-based.
Data set [23] can be described thus: Drug metabolism in plasma of Sprague-Dawley rat assessed as (1-(36-(((2R,3R,4S,5R,6R)-3-acetamido-4,5-dihydroxy-6-(hydroxymethyl)tetrahydro-2H-pyran-2-yl)oxy)-21,21-bis((3-((3-(5-(((2R,3R,4S,5R,6R)-3-acetamido-4,5-dihydroxy-6-(hydroxymethyl)tetrahydro-2H-pyran-2-yl)oxy)pentanamido)propyl)amino)-3-oxopropoxy)methyl)-16,19,26,32-tetraoxo-3,6,9,12,23-pentaoxa-15,20,27,31-tetraazahexatriacontyl)-1H-1,2,3-triazol-4-yl)methyl hydrogen ((2-(6-amino-9H-purin-9-yl)ethoxy)methyl)phosphonate formation measured at 2.1 mins by HPLC analysis. Particulars: 0.035 h. Format: ADME, cell-free.

The subject of data set [24] is Hepatitis B virus. Nature of the data set: Antiviral activity against Hepatitis B virus infected in human HepG2.2.15 cells assessed as inhibition of HBV DNA replication incubated for 9 day. Particulars: HepG2.2.15, 216 h.

Molecules are shown by their SMILES.

As usually defined, the half-life is how long it takes for the measured level to halve. Usually EC50 stands for the concentration giving half of the maximal effect. As a reminder, the CC50 is the concentration at which the toxic effect on the cells reaches its halfway point. The term MTD denotes the largest dose that counted as tolerated. On to `CC(=O)N[C@H]1[C@H](OCCCCC(=O)NCCCNC(=O)CCOCC(COCCC(=O)NCCCNC(=O)CCCCO[C@@H]2O[C@H](CO)[C@H](O)[C@@H](O)[C@H]2NC(C)=O)(COCCC(=O)NCCCNC(=O)CCCCO[C@@H]2O[C@H](CO)[C@H](O)[C@@H](O)[C@H]2NC(C)=O)NC(=O)CCC(=O)NCCOCCOCCOCCOCCn2cc(COP(=O)(CO[C@H](C)Cn3cnc4c(N)ncnc43)OCOC(=O)OC(C)C)nn2)O[C@H](CO)[C@H](O)[C@H]1O` (some centres not stated), for which the Activity result in [1] is given as “Non-toxic”; in data set [2] it was “Non-toxic”; in the data set with LX-2 [3], “Toxic”; in data set [4], “Non-toxic”; in data set [5], “Non-toxic”; in data set [8] it was “Non-toxic”. Besides, the Activity result in [9] was “Non-toxic”; in data set [10] it was “Non-toxic”; in [11], “Non-toxic”; in [12], “Non-toxic”; in data set [16], “Non-toxic”; in the data set with LX-2 [17], “Toxic”. The Activity entry in data set [20], in [21] and in data set [22] was “Non-toxic” each time. Moreover, the Drug uptake result in data set [6] is “Active”. Further, the half-life in data set [7] is greater than 24 h. The EC50 with Hepatitis B virus [13] was determined as 94.8 nM. The Drug metabolism result in [14] is “metabolite_detected”. Further, the half-maximal cytotoxic concentration (CC50) in [15] is greater than 100000 nM. In [18], the selectivity ratio was greater than 1050. In addition, the MTD at 120 h in [19] was roughly 200 mg/kg.

For the molecule `CC(=O)N[C@H]1[C@H](OCCCCC(=O)NCCCNC(=O)CCOCC(COCCC(=O)NCCCNC(=O)CCCCO[C@@H]2O[C@H](CO)[C@H](O)[C@@H](O)[C@H]2NC(C)=O)(COCCC(=O)NCCCNC(=O)CCCCO[C@@H]2O[C@H](CO)[C@H](O)[C@@H](O)[C@H]2NC(C)=O)NC(=O)CCC(=O)NCCOCCOCCOCCOCCn2cc(COP(=O)(COCCn3cnc4c(N)ncnc43)OCOC(=O)C(C)(C)C)nn2)O[C@H](CO)[C@H](O)[C@H]1O` (some centres not stated), the Activity entry is given as “Non-toxic” in [1]; “Non-toxic” in data set [2]; “Toxic” in the data set with LX-2 [3]; “Non-toxic” in data set [4]; “Non-toxic” in [5]; “Non-toxic” in [8]. Further, the Activity entry is “Non-toxic” in data set [9]; “Non-toxic” in [10]; “Non-toxic” in data set [11]; “Non-toxic” in [12]; “Non-toxic” in [16]; “Toxic” in the data set with LX-2 [17]. The Activity result in data set [20], in data set [21] and in data set [22] was “Non-toxic” throughout. For the same molecule, the Drug uptake result in data set [6] is recorded as “Active”. Further, the half-life in data set [7] is greater than 24 h. In the data set with Hepatitis B virus [13], the 50% effective concentration (EC50) was found to be 98.3 nM. Moreover, the cytotoxic concentration (CC50) in [15] was greater than 100000 nM. The Drug metabolism result in data set [23] is “metabolite_detected”. Also, the selectivity ratio in data set [18] is greater than 1020. Further, the MTD at 120 h in data set [19] is roughly 200 mg/kg.

For `CC(C)OC(=O)[C@H](C)N[P@](=O)(CO[C@H](C)Cn1cnc2c(N)ncnc21)Oc1ccccc1` [TENOFOVIR ALAFENAMIDE], the Activity entry in the data set with LX-2 [3] and in the data set with LX-2 [17] was “Toxic” in each case. In addition, in the data set with Hepatitis B virus [24], the half-maximal effective concentration (EC50) turned out to be 12.2 nM.
